Assay results: US10072038B2, “Crystal of ammonium N-acetylneuraminate anhydrate, and process for producing same” (KYOWA HAKKO BIO CO., LTD., priority 2015, dated 2018)

How the values were obtained:
[1] = pH of aqueous solution of the crystal; assay type: physicochemical; details: aqueous solution at 100 g/L in terms of NeuAc ammonium salt
Protocol: As for the pH, an aqueous solution at 100 g/L in terms of NeuAc ammonium salt was measured.

[2] = Stability under high temperature conditions judged from melting point; assay type: physicochemical; details: inferred from melting point 166.2° C. vs around 105° C. of known monohydrate
Protocol: (5) Measurement of Melting Point
The measurement was performed using Melting Point M-565 (manufactured by BUCHI) according to the instruction book.
In addition, the melting point of the crystal of NeuAc ammonium salt anhydrate is 166.2° C. and is higher than the melting point of around 105° C. of known NeuAc ammonium salt monohydrate salt.

[3] = Weight change (moisture absorption) under an atmosphere of 25° C. and a humidity of 60%; assay type: physicochemical; details: humidity 60%; for weight increase due to moisture absorption: up to 24 h
Protocol: With respect to the crystal of NeuAc ammonium salt anhydrate and the noncrystalline amorphous NeuAc ammonium salt acquired in Reference Example 1, the weight change under an atmosphere of 25° C. and a humidity of 60% was compared, and the results are shown in Table 5.

[4] = Measurement of degree of solubility in water (HPLC of supernatant); assay type: physicochemical; details: FIG. 5; compared with crystal of known NeuAc dihydrate
Protocol: (2) Measurement of Degree of Solubility
A crystal of NeuAc ammonium salt anhydrate, or a crystal of known NeuAc dihydrate was added to water adjusted to the respective temperatures until each crystal remained undissolved and after keeping the solution for a sufficient time under stirring, the supernatant containing no crystal was collected, and the concentration of NeuAc therein was measured using the following HPLC conditions.
Guard column: Shodex SUGAR SH-G ϕ6.0×50 mm
Column: SUGAR SH1011 ϕ8.0×300 mm×2 columns in series
Column temperature: 60° C.
Buffer: an aqueous 0.005 mol/L sulfuric acid solution
Detector: UV detector (wavelength: 210 nm)
The degrees of solubility in water of the crystal of NeuAc ammonium salt anhydrate obtained above and a crystal of NeuAc dihydrate are illustrated in FIG. 5.

[5] = Degree of coloration when stored in a closed system at 60° C. (transmittance at 430 nm); assay type: physicochemical; details: for Transmittance T % 430 nm: stored in closed system at 60° C., solution 100 g/L in terms of an anhydrate, 1 cm
Protocol: With respect to the crystal of NeuAc ammonium salt anhydrate and a crystal of known NeuAc dihydrate, the degree of coloration when stored in a closed system at 60° C. was compared, and the results are shown in Table 8. The degree of coloration is expressed by transmittance T % 430 nm=100×10^−A (A=Abs: 430 nm, 1 cm), which was obtained by dissolving each crystal at 100 g/L in terms of an anhydrate and performing measurement for the solution.

[6] = normal temperature; cited from earlier work
[7] = cited from earlier work

For `CC(=O)N[C@H]1[C@H]([C@H](O)[C@H](O)CO)OC(O)(C(=O)O)C[C@@H]1O.N` (stereo partly drawn) [Crystal of ammonium salt, ammonium N-acetylneuraminate anhydrate], the pH ([1]; listed as Example 1) was 7.07, the pH ([1]; listed as Example 2) was 6.60 and the pH ([1]; listed as Example 3) was 6.39. For the same molecule, the “stability under high temperature conditions” value [2] was “stable even under high temperature conditions”, the “Rate of weight change” value ([3]; elapsed time 0 h) was 0.00% and the “Rate of weight change” value ([3]; elapsed time 3 h) was −0.08%. For the same molecule, the “Rate of weight change” value ([3]; elapsed time 7 h) was −0.10%, the “Rate of weight change” value ([3]; elapsed time 24 h) was −0.06% and the “weight increase due to moisture absorption” value ([3]; listed as crystal of NeuAc ammonium salt anhydrate) was “a weight increase was not observed”. The “degree of solubility in water” value [4] was “large degree of solubility compared with the degree of solubility of the crystal of known NeuAc dihydrate”, the coloration during storage ([5]; closed system at 60° C., compared with crystal of known NeuAc dihydrate) was “extremely low” and the “Transmittance T % 430 nm” value ([5]; 0 days) was 99.73%. For the same molecule, the “Transmittance T % 430 nm” value ([5]; 3 days) was 98.87% and the “Transmittance T % 430 nm” value ([5]; 6 days) was 98.49%.

In the case of `CC(=O)N[C@H]1[C@H]([C@H](O)[C@H](O)CO)OC(O)(C(=O)O)C[C@@H]1O` (stereo partly drawn) [Dihydrate crystal, N-Acetylneuraminic acid, reference compound], the degree of solubility [6] is given as “about 100 g/L”, the “storage stability (discoloration of crystal and solution)” value [7] is given as “gradually discolored to dark brown” and the “Transmittance T % 430 nm” value ([5]; 0 days) is given as 100.1%. For the same molecule, the “Transmittance T % 430 nm” value ([5]; 3 days) was 73.26% and the “Transmittance T % 430 nm” value ([5]; 6 days) was 50.46%.

With `CC(=O)N[C@H]1[C@H]([C@H](O)[C@H](O)CO)OC(O)(C(=O)O)C[C@@H]1O.N` (stereo partly drawn) [Noncrystalline amorphous, NeuAc ammonium salt, reference compound] the “Rate of weight change” value ([3]; elapsed time 3 h, ammonium salt) was 6.58%, the “Rate of weight change” value ([3]; elapsed time 7 h, ammonium salt) was 10.4% and the “Rate of weight change” value ([3]; elapsed time 24 h, ammonium salt) was 13.5%. The “weight increase due to moisture absorption” value ([3]; listed as noncrystalline amorphous NeuAc ammonium salt, ammonium salt) was “marked weight increase due to moisture absorption” and the deliquescence ([3]; when 24 hours had passed) was “deliquesced”.
